From patent publication US20210069356A1, “ISOTOPOLOGUES OF 2-(4-CHLOROPHENYL)-N-((2-(2,6-DIOXOPIPERIDIN-3-YL)-1-OXOISOINDOLIN-5-YL)METHYL)-2,2-DIFLUOROACETAMIDE” (Celgene Corporation, priority 2018, published 2021) come the findings set out here.

In one assay the test system is KG-1 cell line. Put plainly: KG-1 cell proliferation, CellTiter-Glo assay. Particulars: Homo sapiens; KG-1 cells, 72 hours post-treatment; read-out: FCA Prolif Cell TiterGlo KG-1 72 h (IC50). The class given is cell-based. Here is the method: (§1) The anti-proliferative activity of the test compounds was evaluated on KG-1 and KG-1a cell lines using CellTiter-Glo assay as described in U.S. Pat. No. 9,499,514 at 72 hours post-treatment.

The test system of a further assay is KG-1a cell line. Put plainly: KG-1a cell proliferation, CellTiter-Glo assay. It counts as cell-based. Particulars: Homo sapiens; KG-1a cells, 72 hours post-treatment; read-out: FCA Prolif Cell TiterGlo KG-1a 72 h (IC50). The protocol:
as §1

Turning to `[2H]c1cc(C(F)(F)C(=O)NCc2ccc3c(c2)CN(C2CCC(=O)NC2=O)C3=O)ccc1Cl` (stereo not drawn), the IC50 (usually the midpoint of a concentration-inhibition curve) was 15.5 nM in the assay with KG-1 cell line and 18.1 nM in the assay with KG-1a cell line.

For `[2H]c1cc(Cl)ccc1C(F)(F)C(=O)NCc1ccc2c(c1)CN(C1CCC(=O)NC1=O)C2=O` (stereo not drawn), the IC50 with KG-1 cell line amounted to 36.9 nM; in the assay with KG-1a cell line it was 29.9 nM.

In the case of `[2H]c1c([2H])c(C(F)(F)C(=O)NCc2ccc3c(c2)CN(C2CCC(=O)NC2=O)C3=O)c([2H])c([2H])c1Cl` (stereo not drawn), the IC50 came to 26.2 nM with KG-1 cell line and 31.3 nM with KG-1a cell line.
